This assay has as its system Purified bovine brain tubulin. As to the kind of experiment: in vitro tubulin polymerization assay (turbidimetric). The class given is biochemical. The following applies: GTP-initiated, 30 C, turbidity monitored for 15 minutes, read-out: 1C50, inhibitory effects on tubulin polymerization in vitro. As to the method: Anti-mitotic activity can be evaluated by testing the ability of a compound of the invention to inhibit tubulin polymerization and microtubule assembly in vitro. The tubulin/microtubule system is instrumental in the formation in the mitotic spindle, making it a prime target for anti-mitotic agents. In vitro tubulin polymerization assays are performed to serve as an estimate of the in vivo cytotoxic activity of designated compounds. Purified bovine brain tubulin (120 μl, 4 mg/ml), 240 μl PME (100 mm piperazine-n, n-bis(2-ethane-sulfonic acid i.e., pipes, ph 6.9, 1 mm MgSO4, 2 mm ethyleneglycol-bis-(β-aminoethyl ether) N, N, N', N'-tetraacetic acid i.e. EGTA and 40 μl dimethyl sulfoxide i.e. DMSO, are combined and transferred to a 1 ml quartz cuvet. Polymerization is initiated by the addition of guanosine triphosphate i.e. GTP, (8 μl, 50 mM) and monitored turbidometrically in a Varian DMS 90 UV-Vis spectrophotometer in a temperature controlled cuvet holder at 30_C. Tubidity increases with increasing tubulin polymerization, giving a false absorbence reading and, over time, a polymerization curve. […] 200 μM solutions (in DMSO) of compounds to be assayed were prepared, and substituted for portions of the DMSO in the polymerization mixture.
The method is given above in-vitro assay for anti-miotic activity.
`C=Cc1ccc2c(cc1=O)CC[C@@H]1[C@@H]2CC[C@]2(C)[C@@H](O)CC[C@@H]12` [Compound 18, 3-Vinyl-A-homo-1(10), 2,4a-estratrien-17β-ol-4-one]: the IC50 was 14.2 µM. Next, `C[C@]12CC[C@@H]3c4ccc(O)c(=O)cc4CC[C@H]3[C@@H]1CC[C@@H]2O` [Compound 16b, A-homo-1(10), 2,4a-estratrien-3,17β-diol-3-one]: 22.8 µM; “4 Chloro-A-Homo-4,5(10)-estradien-2,17β-diol-3-one [Compound 11b]”: 9.8 µM; `C[C@]12CC[C@@H]3c4ccc(Br)c(=O)cc4CC[C@H]3[C@@H]1CC[C@@H]2O` [Compound 8a, 3-Bromo-A-Homo-1(10), 2,4a-estratrien-17β-ol-4-one]: 2.9 µM. Regarding `COc1ccc2c(cc1=O)[C@H]1CC[C@]3(C)[C@@H](O)CC[C@H]3[C@@H]1CC2` [Compound 12, 3-Methoxy-A-Homo-1(10), 3,4a-estratrien-17β-ol-2-one], the IC50 is 27.5 µM.

For `COc1cc2c(ccc1=O)CC[C@@H]1[C@@H]2CC[C@]2(C)[C@@H](O)CC[C@@H]12` [Compound 13, 2-Methoxy-A-Homo-1,4,5(10)-estratrien-17β-ol-3-one], the IC50 amounted to 29.8 µM.

As for `CN(C)c1cc2c(ccc1=O)[C@H]1CC[C@]3(C)[C@@H](O)CC[C@H]3[C@@H]1CC2` [Compound 19d, 4-Dimethylamino-A-homo-1,4,5(10)-estratrien-17β-ol-3-one], the IC50 came to 46.8 µM. Next, `C[C@]12CC[C@@H]3c4ccc(=O)c(N)cc4CC[C@H]3[C@@H]1CC[C@@H]2O` [Compound 15b, 4-Amino-A-homo-1,4,5(10)-estratrien-17β-ol-3-one]: 9.2 µM; `C[C@]12CC[C@@H]3c4cccc(=O)cc4CC[C@H]3[C@@H]1CC[C@@H]2O` [Compound 3, A-Homo-1(10), 2,4a-estratrien-17β-ol-4-one]: 7.2 µM; `C[C@]12CC[C@@H]3c4ccc([N+](=O)[O-])c(=O)cc4CC[C@H]3[C@@H]1CC[C@@H]2O` [Compound 17a, 3-Nitro-A-homo-1(10), 2,4a-estratrien-17β-ol-4-one]: 52 µM.

On to `COc1cc2c(ccc1=O)[C@H]1CC[C@]3(C)[C@@H](O)CC[C@H]3[C@@H]1CC2` [Compound 11c, 4-Methoxy-A-Homo-1,4,5(10)-estratrien-17β-ol-3-one], for which the IC50 amounted to 2.1 µM. With `C[C@]12CC[C@@H]3c4cc(N)c(=O)ccc4CC[C@H]3[C@@H]1CC[C@@H]2O` [Compound 15a, 2-Amino-A-homo-1,4,5(10)-estratrien-17β-ol-3-one], the IC50 came out at 16.5 µM. Turning to `CCOc1cc2c(ccc1=O)[C@H]1CC[C@]3(C)[C@@H](O)CC[C@H]3[C@@H]1CC2` [Compound 11d, 3-Ethoxy-A-Homo-1,4,5(10)-estratrien-17β-ol-3-one], the IC50 worked out at 5.9 µM.

For the compound `C[C@]12CC[C@@H]3c4ccc(=O)ccc4CC[C@H]3[C@@H]1CC[C@@H]2O` [Compound 6, A-Homo-1,4,5(10)-estratrien-17β-ol-3-one], the IC50 came to 4.4 µM.

Consider `C[C@]12CC[C@@H]3c4ccc(N)c(=O)cc4CC[C@H]3[C@@H]1CC[C@@H]2O` [Compound 14, 3-Amino-A-homo-1(10), 2,4a-estratrien-17β-ol-4-one], for which the IC50 is 14.4 µM.

As to `CN(C)c1ccc2c(cc1=O)CC[C@@H]1[C@@H]2CC[C@]2(C)[C@@H](O)CC[C@@H]12` [Compound 19b, 3-Dimethylamino-A-homo-1(10), 2,4a-estratrien-17β-ol-4-one], the IC50 amounted to 14.3 µM. In the case of `COc1ccc2c(cc1=O)CC[C@@H]1[C@@H]2CC[C@]2(C)[C@@H](O)CC[C@@H]12` [Compound 8c, 3-Methoxy-A-Homo-1(10), 2,4a-estratrien-17β-ol-4-one], the IC50 is 8.1 µM. With `C[C@]12CC[C@@H]3c4ccc(Cl)c(=O)cc4CC[C@H]3[C@@H]1CC[C@@H]2O` [Compound 8b, 3-Chloro -A-Homo-1(10), 2,4a-estratrien-17β ol-4-one], the IC50 was 2.8 µM. As for `CNc1ccc2c(cc1=O)CC[C@@H]1[C@@H]2CC[C@]2(C)[C@@H](O)CC[C@@H]12` [Compound 19a, 3-Methylamino-A-homo-1(10), 2,4a-estratrien-17β-ol-4-one], the figure is 60.7 µM; as for `C[C@]12CC[C@@H]3c4cc(O)c(=O)ccc4CC[C@H]3[C@@H]1CC[C@@H]2O` [Compound 16a, A-homo-1,4,5(10)-estratrien-2, 17β-diol-3-one], 14.9 µM; as for `CNc1cc2c(ccc1=O)[C@H]1CC[C@]3(C)[C@@H](O)CC[C@H]3[C@@H]1CC2` [Compound 19c, 4-Methylamino-A-homo-1,4,5(10)-estratrien-17β-ol-3-one], 19.4 µM.
